The values below come from PMC10726367 (Journal of Medicinal Chemistry, 2023).

One may read the EC50 as the concentration that produces a half-maximal response. Lower therefore signals an effect from little substance. One may read the viability as a read-out of living cells in per cent, often relative to untreated cells. High values mean less harm to the cells, low ones more harm to the cells.

One series has as its target T1, RyR2 (Mus musculus, UniProt E9Q401).
T1 construct: expressed in transfected cells; host or cells: HEK-293 cells stably expressing R-CEPIA1er with doxycycline-inducible WT RyR2
The series is described as follows: Time-lapse [Ca2+]ER assay (RyR2 R-CEPIA1er assay) in HEK-293 cells with inducible WT RyR2. Type of series: cell-based. The conditions noted are these: for RyR2 effect class: 25 μM (S107 1 mM per Figure 2); for RyR2 effect class / EC50: HEK-293 RyR2 R-CEPIA1er cells; for EC50: value, interval; for effect on [Ca2+]ER / R-CEPIA1er fluorescence (F/F0): 25 μM, vs 0.1 v/v% DMSO. From the text:
To assess the functional potency of novel agents for modulating RyR2 channel activity, we measured changes in Ca^2+ levels in ER of HEK-293 cells with inducible expression of wild-type RyR2 (WT RyR2).[33],[34] Because the expression of WT RyR2 introduces an additional spontaneous Ca^2+ leak from the ER, these cells are suitable for our purpose of testing potential RyR2 stabilizers.[35] The cells additionally stably express the Ca^2+ fluorescence indicator R-CEPIA1er, which is a genetically encoded sensor protein of Ca^2+ in the ER (the cell line was a gift from T. Murayama, Department of Pharmacology, Juntendo University School of Medicine, Tokyo, Japan).[36]
The addition of these compounds, which are known to inhibit excessive cardiac RyR2 activity, should reduce Ca^2+ leak from the ER, thus increasing the R-CEPIA1er fluorescence.
The fluorescence plate reader [Ca^2+]ER assay was performed according to the slightly modified protocol of Murayama and Kurebayashi.[36] […] After the cells were inducted with doxycycline for 24 h, changes in ER calcium concentrations [Ca^2+]ER were measured on a multiwell plate reader TECAN Spark 20 M at 37 °C. The 1000 × stock solutions of the test compounds were prepared in DMSO. Briefly, the culture medium was removed and 100 μL of Tyrode’s solution containing 2 mM CaCl2 was added to the cells. The time courses were recorded in each well. Fluorescence was evoked by a 560 nm excitation wavelength and collected in a bottom-read mode at 610 nm. Data was recorded every 10 s, exposure −20 flashes, excitation bandwidth −20 nm, emission bandwidth −20 nm. 100 μL of 0–100 μM solution of test compound in Tyrode’s solution containing 2 mM CaCl2 was injected in each well (speed 100 μL/s) at the 90 s time point. […] The 0.1 v/v% DMSO and 2 mM CaCl2 Tyrode’s solution was used as a control.
The dose–response curves were calculated using the software package GraphPad Prism version 8.3.1. (GraphPad Software, Inc.). All data are presented as mean ± SD in three independent experiments. Y = bottom + (top – bottom)/(1 + 10^((LogEC50 – X) × HillSlope)) was used, where HillSlope describes the steepness of the curve, and top and bottom are plateaus in the units of the Y-axis.

The next series concerns the target T2, SERCA2a (Mus musculus, UniProt O55143).
T2 construct: host or cells: HL-1 cells
The series is described as follows: NADH-coupled ATPase assay on mouse heart ventricular SR microsomes (mouse SR). Type of series: biochemical. The conditions noted are these: for SERCA2a mouse SR effect class: 10 μM (3 μM for 12b per Figure 6c), microsomal membrane vesicles; for SERCA2a ATPase activity in mouse SR vesicles (in words): 10 μM, vs 0.1 v/v% DMSO. An excerpt: Cyclopropanol derivatives have a variety of biological activities including enzyme inhibition and antibacterial and anticancer properties.[47]−[50] However, there have been no published reports on cyclopropanol-containing molecules specifically acting as modulators of RyRs and/or activators of SERCA. To investigate more directly whether the compounds influence the SERCA2 activity, we performed nicotinamide adenine dinucleotide (NADH) fluorescence-coupled ATPase assay according to Radnai et al.[51] In this assay, the change in NADH coenzyme fluorescence reflects the level of the consumption of ATP, which we took as indicator of SERCA2 activity.[51],[52] ATP hydrolysis by SERCA2 is required to pump calcium ions into the SR. We assume that a higher rate of ATP hydrolysis reflects an increase in SERCA2 ATPase activity that leads to a greater pumping of calcium ions into the SR.
We observed the rate of NADH oxidation, which is coupled to ATP hydrolysis, by measuring changes in NADH intrinsic fluorescence over time after ATP injection into microsomal membranes enriched in SR vesicles isolated from mouse heart ventricles (mouse SR) and HEK-293T cells (HEK-293 ER). The presence of SERCA2 in mouse SR and HEK-293 ER of isolated microsomal vesicles was confirmed by Western blotting (Figures S5 and S6; for details see Experimental Section). The NADH fluorescence decrease was recorded on a multiwell plate reader TECAN Spark 20M (λex = 380 nm, λem = 470 nm). […] Consistent with our previous experiment on HL-1 cells, we observed a strong decrease in NADH fluorescence reflecting an increase in SERCA2a activity in SR microsomes derived from mouse heart ventricles (n = 3–5) in solutions containing the tested compounds compared to the 0.1 v/v% DMSO sample (Figure 6). […] Similar results were obtained in cardiac SR vesicles from the mouse heart. […] This difference may indicate isoform-specific effects of our compound in HEK-293 cells expressing mostly SERCA2b[53] versus mouse SR vesicles containing mostly SERCA2a.[54] In both experiments, we used CDN1163 as a positive control.
All animal procedures were performed in accordance with Directive 2010/63/EU of the European Parliament and the Council on the protection of animals used in research as well as Animal Welfare Law of the Federal Republic of Germany (Tierschutzgesetz der Bundesrepublik Deutschland, TierSchG). […] All mice were housed with a 12 h light/dark cycle with free access to food and water. Adult C57BL/6N mice of both genders were sedated with isoflurane in a sealed container and quickly euthanized by cervical dislocation. Heart ventricles were taken out instantly, washed with ice-cold PBS plus complete, cut into smaller pieces, and snap frozen in liquid nitrogen straight away.
Lysis buffer thawed on ice (10 mM EDTA, 10 mM HEPES, cOmplete, pH 7.4) was added, and the ventricles were homogenized with a Qiagen Cellruptor for 20 s. On ice, an equal volume of restoration buffer (500 mM sucrose, 10 mM HEPES, cOmplete, pH7.2) was added and briefly mixed. The homogenate was centrifuged at 10^4 × g for 20 min at 4 °C. The supernatant was collected and centrifuged again for another hour (10^5 × g at 4 °C). Then, the pellet was carefully resuspended in resuspension buffer (250 mM sucrose, 10 mM HEPES, cOmplete, pH 7.2) on ice by pipetting the solution up and down until fully dissolved. The obtained solution was diluted to a protein concentration of 5 μg/μL with the resuspension buffer, and the aliquots were snap frozen in liquid nitrogen and then stored at −80 °C until usage.
To determine whether new compounds could increase the SERCA2 activity, HEK-293 microsomes (40–150 μg of total protein) or mouse ventricular microsomes (1–20 μg of total protein) were diluted in 100 μL of the assay buffer used for measurement of SERCA activity (described below) and incubated at room temperature for 5 min prior to the experiments. […]

Series [1] in a line: CytoTox-Glo Cytotoxicity Assay. Format: cell-based. As to conditions: mouse; HL-1 cells, 100 μM solutions, 24 h incubation. The protocol:
Cell viability was assessed using the CytoTox-Glo Cytotoxicity Assay according to the manufacturing procedure (Promega GmbH). Briefly, HL-1 cells were cultivated for 24 h in black-walled, clear-bottom 96-well microplates (Corning) covered with fibronectin in DMEM, containing different concentrations of the tested compound (10,000 cells/well). Luminescence of a luminogenic peptide substrate was measured before and after the addition of the lysis reagent (digitonin). The viable cell contribution was determined by a subtractive method. 0.1% DMSO-treated cells were taken as a control.

T1 sequence (E9Q401 whole entry): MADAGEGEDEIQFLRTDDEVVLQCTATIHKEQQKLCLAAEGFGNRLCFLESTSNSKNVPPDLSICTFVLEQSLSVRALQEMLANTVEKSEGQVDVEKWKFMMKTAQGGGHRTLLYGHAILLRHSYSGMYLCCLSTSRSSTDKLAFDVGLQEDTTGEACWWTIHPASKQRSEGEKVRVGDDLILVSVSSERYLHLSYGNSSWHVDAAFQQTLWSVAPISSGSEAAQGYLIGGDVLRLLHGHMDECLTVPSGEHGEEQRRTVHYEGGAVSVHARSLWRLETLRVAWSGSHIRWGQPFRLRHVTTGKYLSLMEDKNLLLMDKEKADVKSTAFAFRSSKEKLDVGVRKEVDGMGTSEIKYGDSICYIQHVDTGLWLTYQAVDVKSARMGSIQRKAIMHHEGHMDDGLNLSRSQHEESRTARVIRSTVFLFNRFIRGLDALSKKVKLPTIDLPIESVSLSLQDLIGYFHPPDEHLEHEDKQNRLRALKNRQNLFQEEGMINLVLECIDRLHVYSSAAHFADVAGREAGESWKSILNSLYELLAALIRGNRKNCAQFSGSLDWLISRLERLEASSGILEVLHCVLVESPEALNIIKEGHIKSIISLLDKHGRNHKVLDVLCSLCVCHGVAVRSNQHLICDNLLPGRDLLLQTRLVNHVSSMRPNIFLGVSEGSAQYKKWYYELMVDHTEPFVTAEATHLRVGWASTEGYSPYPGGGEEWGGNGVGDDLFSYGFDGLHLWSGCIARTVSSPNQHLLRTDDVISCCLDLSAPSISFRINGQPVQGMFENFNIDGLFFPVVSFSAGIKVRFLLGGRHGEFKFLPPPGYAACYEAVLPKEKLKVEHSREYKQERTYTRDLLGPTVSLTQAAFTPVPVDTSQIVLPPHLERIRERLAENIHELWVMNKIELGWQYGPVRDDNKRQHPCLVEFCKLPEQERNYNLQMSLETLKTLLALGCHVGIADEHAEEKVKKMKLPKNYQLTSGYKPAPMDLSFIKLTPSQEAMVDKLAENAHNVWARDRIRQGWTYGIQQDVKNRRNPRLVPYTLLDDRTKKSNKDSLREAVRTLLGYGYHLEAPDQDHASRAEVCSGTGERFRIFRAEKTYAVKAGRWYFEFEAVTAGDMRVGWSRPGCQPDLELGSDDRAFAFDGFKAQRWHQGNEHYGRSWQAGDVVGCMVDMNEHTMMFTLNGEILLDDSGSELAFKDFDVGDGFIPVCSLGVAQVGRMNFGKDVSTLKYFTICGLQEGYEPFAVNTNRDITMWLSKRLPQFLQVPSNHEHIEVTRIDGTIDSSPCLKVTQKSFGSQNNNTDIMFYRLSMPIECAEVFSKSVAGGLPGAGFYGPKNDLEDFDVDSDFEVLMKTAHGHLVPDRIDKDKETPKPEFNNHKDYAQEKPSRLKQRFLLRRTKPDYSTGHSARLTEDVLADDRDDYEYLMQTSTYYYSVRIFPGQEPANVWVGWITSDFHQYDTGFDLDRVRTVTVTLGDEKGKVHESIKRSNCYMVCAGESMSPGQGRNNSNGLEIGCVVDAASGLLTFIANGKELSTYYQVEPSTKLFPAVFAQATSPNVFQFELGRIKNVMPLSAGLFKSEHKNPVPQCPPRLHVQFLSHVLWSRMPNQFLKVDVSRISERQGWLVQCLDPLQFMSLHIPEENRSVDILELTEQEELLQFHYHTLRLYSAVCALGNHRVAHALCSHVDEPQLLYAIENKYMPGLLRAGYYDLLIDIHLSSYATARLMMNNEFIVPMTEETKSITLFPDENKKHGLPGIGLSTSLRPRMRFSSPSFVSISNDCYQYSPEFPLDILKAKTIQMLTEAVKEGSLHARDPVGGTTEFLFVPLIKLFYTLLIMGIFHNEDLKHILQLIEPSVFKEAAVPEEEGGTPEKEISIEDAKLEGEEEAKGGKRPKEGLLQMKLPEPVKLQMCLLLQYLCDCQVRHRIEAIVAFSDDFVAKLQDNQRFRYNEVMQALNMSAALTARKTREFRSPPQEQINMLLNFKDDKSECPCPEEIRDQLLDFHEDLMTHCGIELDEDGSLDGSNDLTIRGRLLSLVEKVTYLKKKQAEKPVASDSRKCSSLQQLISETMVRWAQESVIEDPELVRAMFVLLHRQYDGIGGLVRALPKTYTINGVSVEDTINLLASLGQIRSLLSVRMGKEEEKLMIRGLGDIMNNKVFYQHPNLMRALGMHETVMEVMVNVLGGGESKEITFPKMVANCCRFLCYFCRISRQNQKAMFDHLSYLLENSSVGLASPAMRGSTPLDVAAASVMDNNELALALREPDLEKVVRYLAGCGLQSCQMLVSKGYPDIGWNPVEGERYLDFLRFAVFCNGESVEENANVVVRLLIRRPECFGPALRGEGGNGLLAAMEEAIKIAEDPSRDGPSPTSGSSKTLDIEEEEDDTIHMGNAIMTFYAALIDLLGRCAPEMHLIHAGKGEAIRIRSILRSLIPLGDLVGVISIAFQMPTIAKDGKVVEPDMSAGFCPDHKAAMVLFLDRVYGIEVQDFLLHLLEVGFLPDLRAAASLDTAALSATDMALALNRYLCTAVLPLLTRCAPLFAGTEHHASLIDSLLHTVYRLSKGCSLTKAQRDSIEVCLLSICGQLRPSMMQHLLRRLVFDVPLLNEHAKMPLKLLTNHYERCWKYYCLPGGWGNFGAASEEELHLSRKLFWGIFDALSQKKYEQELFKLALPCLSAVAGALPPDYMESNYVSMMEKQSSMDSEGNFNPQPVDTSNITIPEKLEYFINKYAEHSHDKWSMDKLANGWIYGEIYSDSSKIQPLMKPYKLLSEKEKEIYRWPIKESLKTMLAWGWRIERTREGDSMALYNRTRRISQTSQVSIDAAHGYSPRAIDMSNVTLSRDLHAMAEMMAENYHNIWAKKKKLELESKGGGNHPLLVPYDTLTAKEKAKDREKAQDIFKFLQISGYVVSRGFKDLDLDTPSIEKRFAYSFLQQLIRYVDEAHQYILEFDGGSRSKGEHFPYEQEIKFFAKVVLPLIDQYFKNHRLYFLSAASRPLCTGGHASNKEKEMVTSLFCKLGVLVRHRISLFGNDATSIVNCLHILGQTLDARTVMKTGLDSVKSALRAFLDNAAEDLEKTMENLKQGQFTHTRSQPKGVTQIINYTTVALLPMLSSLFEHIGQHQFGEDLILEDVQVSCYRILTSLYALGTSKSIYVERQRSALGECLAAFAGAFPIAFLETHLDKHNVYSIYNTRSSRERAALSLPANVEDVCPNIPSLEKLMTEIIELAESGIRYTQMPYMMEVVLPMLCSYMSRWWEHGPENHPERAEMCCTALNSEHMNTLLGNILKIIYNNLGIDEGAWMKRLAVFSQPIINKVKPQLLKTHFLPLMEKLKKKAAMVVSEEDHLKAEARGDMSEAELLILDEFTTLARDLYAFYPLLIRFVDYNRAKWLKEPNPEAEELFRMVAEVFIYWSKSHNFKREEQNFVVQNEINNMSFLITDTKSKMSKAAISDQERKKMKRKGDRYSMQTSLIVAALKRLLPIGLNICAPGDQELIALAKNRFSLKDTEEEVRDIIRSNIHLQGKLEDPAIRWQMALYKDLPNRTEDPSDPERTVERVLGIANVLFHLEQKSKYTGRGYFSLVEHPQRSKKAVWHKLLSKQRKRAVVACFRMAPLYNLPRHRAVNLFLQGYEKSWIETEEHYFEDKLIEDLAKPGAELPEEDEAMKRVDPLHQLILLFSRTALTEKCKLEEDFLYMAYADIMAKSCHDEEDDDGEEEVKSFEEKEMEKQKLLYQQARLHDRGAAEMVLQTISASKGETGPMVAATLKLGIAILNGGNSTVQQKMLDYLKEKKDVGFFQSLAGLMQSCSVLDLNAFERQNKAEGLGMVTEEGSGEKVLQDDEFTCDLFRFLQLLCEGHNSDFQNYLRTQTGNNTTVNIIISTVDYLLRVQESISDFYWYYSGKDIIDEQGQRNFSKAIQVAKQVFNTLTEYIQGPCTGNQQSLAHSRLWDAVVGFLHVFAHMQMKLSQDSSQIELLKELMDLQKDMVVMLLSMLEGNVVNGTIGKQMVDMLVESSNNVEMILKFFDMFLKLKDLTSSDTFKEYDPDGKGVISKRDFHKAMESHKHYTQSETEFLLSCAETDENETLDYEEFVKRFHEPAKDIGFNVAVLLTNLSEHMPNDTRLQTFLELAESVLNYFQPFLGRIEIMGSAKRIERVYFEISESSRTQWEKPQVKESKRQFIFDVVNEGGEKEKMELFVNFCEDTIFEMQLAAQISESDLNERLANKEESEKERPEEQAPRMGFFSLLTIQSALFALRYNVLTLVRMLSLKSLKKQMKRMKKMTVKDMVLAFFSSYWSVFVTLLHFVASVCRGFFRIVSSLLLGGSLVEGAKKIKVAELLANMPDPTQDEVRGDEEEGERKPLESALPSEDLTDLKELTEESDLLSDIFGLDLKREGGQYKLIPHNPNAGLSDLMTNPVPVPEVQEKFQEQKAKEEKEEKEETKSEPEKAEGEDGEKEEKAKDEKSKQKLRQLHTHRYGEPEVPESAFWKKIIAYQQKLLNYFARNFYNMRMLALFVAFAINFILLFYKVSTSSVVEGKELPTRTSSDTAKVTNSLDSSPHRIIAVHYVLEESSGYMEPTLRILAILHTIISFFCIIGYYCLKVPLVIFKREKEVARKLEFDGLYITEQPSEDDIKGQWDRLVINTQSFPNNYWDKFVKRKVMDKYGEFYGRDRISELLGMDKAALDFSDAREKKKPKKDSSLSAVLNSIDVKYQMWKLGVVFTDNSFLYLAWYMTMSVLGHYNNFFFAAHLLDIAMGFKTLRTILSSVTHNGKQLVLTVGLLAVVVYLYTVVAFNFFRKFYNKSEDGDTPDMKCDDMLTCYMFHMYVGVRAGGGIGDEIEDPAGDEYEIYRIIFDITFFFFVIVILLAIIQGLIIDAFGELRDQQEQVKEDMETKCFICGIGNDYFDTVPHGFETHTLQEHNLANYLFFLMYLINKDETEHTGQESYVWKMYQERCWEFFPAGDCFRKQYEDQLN

Turning to `COc1ccc(SCCCN(CCCCC2(O)CC2)CCCCC2(O)CC2)cc1` [12c, 1,1′-(((3-((4-Methoxyphenyl)thio)propyl)azanediyl)bis(butane-4,1-diyl))bis(cyclopropan-1-ol)], at RyR2, the RyR2 effect class entry is “+” and the EC50 is 18.6 nM. At SERCA2a, the “SERCA2a mouse SR effect class” value is reported as “+”. Also, the viability at 24 h, 100 μM in series [1] was 90%.

Regarding `COc1ccc(OCCCNCCCCC2(O)CC2)cc1` [11b, 1-(4-((3-(4-Methoxyphenoxy)propyl)amino)butyl)cyclopropan-1-ol], on RyR2, the RyR2 effect class result is recorded as “+++” and the EC50 amounted to 81.5 nM. The “SERCA2a mouse SR effect class” value at SERCA2a is listed as “+”. This compound came in with a viability at 24 h, 100 μM in series [1] of 100%.

With `COc1ccc(SCCCNCCCCC2(O)CC2)cc1` [11c, 1-(4-((3-((4-Methoxyphenyl)thio)propyl)amino)butyl)cyclopropan-1-ol], on RyR2, the RyR2 effect class result is listed as “++” and the midpoint of the response, the EC50, lay at 10.2 nM. The “SERCA2a mouse SR effect class” value on SERCA2a is listed as “+++”. Also, the viability at 24 h, 100 μM in series [1] stood at 73%.

On to `COc1ccc2c(c1)CN(Cc1ccc(C(=O)O)cc1)CCS2` [ARM210, reference compound], for which, at RyR2, the RyR2 effect class entry is given as “++” and the “effect on [Ca2+]ER / R-CEPIA1er fluorescence (F/F0)” value was “significantly increased [Ca^2+]ER”. Further, at SERCA2a, the “SERCA2a mouse SR effect class” value is on record as “++” and the “SERCA2a ATPase activity in mouse SR vesicles (in words)” value was “improvement of ATPase activity”. The compound further came in with a viability at 24 h, 100 μM in series [1] of 90%.

On to `COc1ccc2c(c1)CN(CCCCNCCCCC1(O)CC1)CCS2` [11a, 1-(4-((4-(7-Methoxy-2,3-dihydrobenzo[1,4-f]thiazepin-4(5H)-yl)butyl)amino)butyl)cyclopropan-1-ol], for which, on RyR2, the RyR2 effect class result is listed as “++”. For the same compound, at SERCA2a, the “SERCA2a mouse SR effect class” value is “+”. Also, the viability at 24 h, 100 μM in series [1] came to 84%.

With `COc1ccc2c(c1)CN(CCCCC1(O)CC1)CCS2` [11d, 1-(4-(7-Methoxy-2,3-dihydrobenzo[1,4-f]thiazepin-4(5H)-yl)butyl)cyclopropan-1-ol], the “effect on [Ca2+]ER / R-CEPIA1er fluorescence (F/F0)” value on RyR2 was “no significant RyR2-stabilizing effect”. Also, on SERCA2a, the “SERCA2a mouse SR effect class” value is on record as “++” and the “SERCA2a ATPase activity in mouse SR vesicles (in words)” value is “moderate”. In series [1], the viability at 24 h, 100 μM amounted to 95%.

In the case of `COc1ccc2c(c1)CN(CCCCN(CCCCC1(O)CC1)CCCCC1(O)CC1)CCS2` [12a, 1,1′-(((4-(7-Methoxy-2,3-dihydrobenzo[1,4-f]thiazepin-4(5H)-yl)butyl)azanediyl)bis(butane-4,1-diyl))bis(cyclopropan-1-ol)], the RyR2 effect class entry on RyR2 is “+++”. Also, the “dose response of F/F0 ([Ca2+]ER)” value at RyR2 (concentration range 10^–11 to 10^–4 M) is given as “most pronounced effect of all of the other compounds”. The “SERCA2a mouse SR effect class” value on SERCA2a is “+++”. Also, at SERCA2a (ATPase activity, value, interval), the EC50 worked out at 383 nM. The compound further yielded a viability at 24 h, 100 μM in series [1] of 80%.
